The NIST ThermoML archive (doi:10.1016/j.jct.2006.03.021)

Assay: molar heat capacity at constant pressure
Conditions: 101.33 kPa, Crystal, Vacuum adiabatic calorimetry

O.OC[C@H]1O[C@@H](O[C@H]2O[C@H](CO)[C@@H](O)[C@H](O)[C@H]2O)[C@H](O)[C@@H](O)[C@@H]1O [α,β-trehalose monohydrate]
Conditions | molar heat capacity at constant pressure [J/K/mol]
143.36 K | 226.95
145.42 K | 229.87
147.49 K | 232.93
149.55 K | 235.92
150 K | 236.64
151.6 K | 238.94
153.65 K | 242.05
155.7 K | 244.94
157.76 K | 248.08
159.82 K | 250.99
160 K | 251.27
161.88 K | 253.84
163.94 K | 256.98
166.01 K | 260.01
168.09 K | 262.9
170 K | 265.74
170.15 K | 265.9
172.2 K | 268.93
174.23 K | 271.83
176.25 K | 274.9
178.26 K | 277.71
180 K | 280.12
180.26 K | 280.35
182.24 K | 283.42
184.22 K | 286.13
186.18 K | 288.99
188.13 K | 291.83
190 K | 294.51
190.07 K | 294.5
191.99 K | 297.33
193.92 K | 300.26
195.86 K | 302.94
197.82 K | 305.58
199.78 K | 308.6
200 K | 308.94
201.75 K | 311.51
203.73 K | 314.35
205.72 K | 317.15
207.72 K | 320.03
209.73 K | 323.23
210 K | 323.42
211.76 K | 326.07
213.79 K | 328.83
215.82 K | 331.74
217.85 K | 335.14
219.89 K | 337.71
220 K | 337.95
221.94 K | 340.79
223.97 K | 343.7
226.01 K | 346.53
228.06 K | 349.68
230 K | 352.54
230.09 K | 352.7
232.12 K | 355.67
234.16 K | 358.66
236.2 K | 361.46
238.24 K | 364.57
240 K | 367.19
240.3 K | 367.64
242.38 K | 370.71
244.44 K | 373.64
246.49 K | 376.59
248.54 K | 379.8
250 K | 381.89
250.58 K | 382.78
252.6 K | 385.78
254.62 K | 388.6
256.63 K | 391.62
258.63 K | 394.61
260 K | 396.69
260.63 K | 397.5
262.91 K | 400.41
264.59 K | 403.48
266.56 K | 406.35
268.52 K | 409.35
270 K | 411.55
270.48 K | 412.29
272.46 K | 415.5
274.46 K | 418.09
276.47 K | 421.07
278.49 K | 424.17
280 K | 426.56
280.52 K | 427.38
282.54 K | 430.46
284.56 K | 433.56
286.58 K | 436.49
288.58 K | 439.62
290 K | 441.71
290.63 K | 443
292.65 K | 445.73
294.68 K | 448.7
296.7 K | 451.81
298.15 K | 454.11
298.72 K | 454.95
300 K | 456.92
300.74 K | 457.97
